# From patent US20130030009A1, “METHOD FOR THE TREATMENT AND/OR PREVENTION OF ORAL ALLERGIC SYMPTIONS OF THE LIPS DUE TO ORAL CONTACT WITH A FOOD ALLERGEN” (priority 2010, published 2013)
# Legend:
# [1] = tested on: patients afflicted with oral allergy syndrome; assay: Cromolyn Sodium mouth rinse in patients afflicted with oral allergy syndrome; format: in vivo
# Excerpt: Using the teachings of the co-pending patent application entitled “PREPARATIONS FOR TOPICAL PREVENTION AND/OR TREATMENT OF ORAL […] SYMPTOMS DUE TO ORAL CONTACT WITH FRUITS AND/OR VEGETABLES”, filed Dec. […] These patients experienced much relief of their oral allergy and throat allergy symptoms. […] Thus, it seems that sometimes mouth rinsing of Cromolyn Sodium fails to deliver sufficient Cromolyn Sodium to the mast cells of the lip.
# [2] = when swallowed may include headache, GI upset, itchiness, irritability, rash, muscle pain; cited from earlier work
smiles,measurement,setting,value
O=C(O)c1cc(=O)c2c(OCC(O)COc3cccc4oc(C(=O)O)cc(=O)c34)cccc2o1 [Cromolyn Sodium],lip itchiness of internal and external lip surfaces after mouth rinse,[1],some individuals still experienced lip itchiness
same,relief of oral allergy and throat allergy symptoms,[1],much relief
same,side effects,[2],very uncommon
